Experiments:
[1] = test system: CAG foci in primary DM1 patient myoblasts; assay: Single-cut screening: CAG foci staining; format: cell-based, human; conditions: single sgRNA; for % of CAG foci positive nuclei (DNA-PKi): DNA-PKi treated
Summary of the method: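 Primary DM1 patient myoblasts were PFA-fixed and hybridized with […] (1 ng/μL, 15 min at 80° C) in 30% formamide/2×SSC, followed by anti-MBNL1 immunostaining and Hoechst counterstain. CAG RNA foci were quantified by high-content confocal imaging after single-cut SuCas9 sgRNA editing.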

[2] = test system: 3′ UTR of the human DMPK gene; assay: Single-cut screening: indel editing efficiency by Sanger sequencing and ICE analysis in primary DM1 patient myoblasts; format: cell-based; conditions: vehicle-treated samples; for Indel efficiency: single SluCas9 sgRNA RNP in primary DM1 patient myoblasts, Sanger sequencing and ICE analysis; for indel efficiency (Sanger sequencing and ICE analysis): single-cut, SluCas9 RNP, 72 hrs post nucleofection, wild-type allele
Summary of the method: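 Indels were estimated by ICE from Sanger chromatograms of PCR amplicons covering the DMPK 3′ UTR wild-type allele, using only vehicle-treated samples; sgRNAs with R2<0.9 are flagged. Samples came from primary DM1 patient myoblasts (2 × 10^5) harvested 72 h after nucleofection with 30 pmol SluCas9 and 90 pmol single sgRNA RNP.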

[3] = test system: CUG foci in primary DM1 patient myoblasts; assay: Single-cut screening: FISH staining of CUG RNA foci; format: cell-based, human; conditions: single sgRNA, primary DM1 patient myoblasts; for % of CUG foci free nuclei (DNA-PKi): DNA-PKi treated
Summary of the method: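 CD56-purified primary DM1 patient myoblasts nucleofected with SluCas9:sgRNA RNP (30:90 pmol, single-cut), then DMSO or 3 μM DNA-PK inhibitor for 48 h. At 72 h post-nucleofection, cells fixed and stained for CUG foci with Cy3-PNA(CAG)5 probe (1 ng/μL, 80 °C), co-stained for MBNL1 and Hoechst, imaged by high-content confocal microscopy.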

For “SluD101: downstream SluCas9 sgRNA, presumably SEQ ID NO 167; sequence not in the shown tables (guide AGTCCAGAGCTTTGGGCAGATG; listed as DNA, chemistry not fully specified)”, the “% of CAG foci positive nuclei (DNA-PKi)” value [1] was 2.93%, the “% of CAG foci positive nuclei (Vehicle)” value [1] was 2.09% and the Indel efficiency [2] was 38%. The “% of CUG foci free nuclei (DNA-PKi)” value [3] was 33.61% and the “% of CUG foci free nuclei (Vehicle)” value [3] was 21.35%.
For “GTCCAGAGCTTTGGGCAGATGG (listed as DNA, chemistry not fully specified) [SluD100]”, the “% of CAG foci positive nuclei (DNA-PKi)” value [1] was 3.35%, the “% of CAG foci positive nuclei (Vehicle)” value [1] was 2.15% and the Indel efficiency [2] was 81%. The “indel efficiency (Sanger sequencing and ICE analysis)” value [2] was “high editing IN4DEL efficiency”, the “% of CUG foci free nuclei (DNA-PKi)” value [3] was 37.39% and the “% of CUG foci free nuclei (Vehicle)” value [3] was 22.06%.
With “GGCGCGATCTCTGCCTGCTTAC (guide RNA; chemistry not fully specified) [SluD36]” the “% of CAG foci positive nuclei (DNA-PKi)” value [1] was 2.32%, the “% of CAG foci positive nuclei (Vehicle)” value [1] was 3.24% and the Indel efficiency [2] was 52%. For the same substance, the “% of CUG foci free nuclei (DNA-PKi)” value [3] was 29.02% and the “% of CUG foci free nuclei (Vehicle)” value [3] was 13.52%.
With “GCCCGCCCCCTAGCggccgggg (guide RNA; as printed in the source, key not given here) [SluU40]” the “% of CAG foci positive nuclei (DNA-PKi)” value [1] was 2.01%, the “% of CAG foci positive nuclei (Vehicle)” value [1] was 1% and the Indel efficiency [2] was 3%. The “% of CUG foci free nuclei (DNA-PKi)” value [3] was 25.77% and the “% of CUG foci free nuclei (Vehicle)” value [3] was 15.29%.
For “CTTTTATTCGCGAGGGTCGGGG (guide RNA; chemistry not fully specified) [SluD93]”, the “% of CAG foci positive nuclei (DNA-PKi)” value [1] was 3.58%, the “% of CAG foci positive nuclei (Vehicle)” value [1] was 1.63% and the Indel efficiency [2] was 18%. For the same substance, the “% of CUG foci free nuclei (DNA-PKi)” value [3] was 26.14% and the “% of CUG foci free nuclei (Vehicle)” value [3] was 11.34%.
With “gggccgggtccgcggccggcga (GGGCCGGGTCCGCGGCCGGCGA; guide RNA; chemistry not fully specified) [SluU55]” the “% of CAG foci positive nuclei (DNA-PKi)” value [1] was 1.34%, the “% of CAG foci positive nuclei (Vehicle)” value [1] was 0.99% and the Indel efficiency [2] was 67%. For the same substance, the “% of CUG foci free nuclei (DNA-PKi)” value [3] was 57.91% and the “% of CUG foci free nuclei (Vehicle)” value [3] was 27.94%.
“CCGGGCCCGCCCCCTAGCggcc (guide RNA; as printed in the source, key not given here) [SluU37]” was tested, and the “% of CAG foci positive nuclei (DNA-PKi)” value [1] was 2.28%, the “% of CAG foci positive nuclei (Vehicle)” value [1] was 0.72% and the Indel efficiency [2] was 15%. For the same substance, the “% of CUG foci free nuclei (DNA-PKi)” value [3] was 30.58% and the “% of CUG foci free nuclei (Vehicle)” value [3] was 8.09%.
In the case of “CGAGGGTCGGGGGTGGGGGTCC (guide RNA; chemistry not fully specified) [SluD88]”, the “% of CAG foci positive nuclei (DNA-PKi)” value [1] is reported as 2.42%, the “% of CAG foci positive nuclei (Vehicle)” value [1] is reported as 1.4% and the Indel efficiency [2] is reported as 7%. The “% of CUG foci free nuclei (DNA-PKi)” value [3] was 31.95% and the “% of CUG foci free nuclei (Vehicle)” value [3] was 11.11%.
With “CCCGGGCACTCAGTCTTCCAAC (guide RNA; chemistry not fully specified) [SluU11]” the “% of CAG foci positive nuclei (DNA-PKi)” value [1] was 1.27%, the “% of CAG foci positive nuclei (Vehicle)” value [1] was 1.44% and the Indel efficiency [2] was 21%. The “% of CUG foci free nuclei (DNA-PKi)” value [3] was 52.22% and the “% of CUG foci free nuclei (Vehicle)” value [3] was 19.12%.
In the case of “TGGAGGATGGAACACGGACGGC (listed as DNA, chemistry not fully specified) [SluD18]”, the “% of CAG foci positive nuclei (DNA-PKi)” value [1] is reported as 1.55%, the “% of CAG foci positive nuclei (Vehicle)” value [1] is reported as 2.71% and the Indel efficiency [2] is reported as 75%. The “indel efficiency (Sanger sequencing and ICE analysis)” value [2] was “high editing IN4DEL efficiency”, the “% of CUG foci free nuclei (DNA-PKi)” value [3] was 31.47% and the “% of CUG foci free nuclei (Vehicle)” value [3] was 15.38%.
“CGGATCACAGGACTGGAGCTGG (guide RNA; chemistry not fully specified) [SluU29]” was tested, and the “% of CAG foci positive nuclei (DNA-PKi)” value [1] was 1.82%, the “% of CAG foci positive nuclei (Vehicle)” value [1] was 1.18% and the Indel efficiency [2] was 67%. For the same substance, the “% of CUG foci free nuclei (DNA-PKi)” value [3] was 48.49% and the “% of CUG foci free nuclei (Vehicle)” value [3] was 27.28%.
With “CGGAGCGGTTGTGAACTGGCAG (guide RNA; chemistry not fully specified) [SluU20]” the “% of CAG foci positive nuclei (DNA-PKi)” value [1] was 1.43%, the “% of CAG foci positive nuclei (Vehicle)” value [1] was 1.15% and the Indel efficiency [2] was 30%. The “% of CUG foci free nuclei (DNA-PKi)” value [3] was 49.95% and the “% of CUG foci free nuclei (Vehicle)” value [3] was 18.45%.
With “GCGGTTGTGAACTGGCAGGCGG (guide RNA; chemistry not fully specified) [SluU18]” the “% of CAG foci positive nuclei (DNA-PKi)” value [1] was 1.24%, the “% of CAG foci positive nuclei (Vehicle)” value [1] was 1.1% and the Indel efficiency [2] was 14%. The “% of CUG foci free nuclei (DNA-PKi)” value [3] was 48.57% and the “% of CUG foci free nuclei (Vehicle)” value [3] was 9.74%.
With “GCGCGGCTTCTGTGCCGTGCCC (guide RNA; chemistry not fully specified) [SluU15]” the “% of CAG foci positive nuclei (DNA-PKi)” value [1] was 1.28%, the “% of CAG foci positive nuclei (Vehicle)” value [1] was 0.75% and the Indel efficiency [2] was 4%. The “% of CUG foci free nuclei (DNA-PKi)” value [3] was 31.71% and the “% of CUG foci free nuclei (Vehicle)” value [3] was 7.97%.
“TGTGATCCGGGCCCGCCCCCTA (guide RNA; chemistry not fully specified) [SluU33]” was tested, and the “% of CAG foci positive nuclei (DNA-PKi)” value [1] was 1.3%, the “% of CAG foci positive nuclei (Vehicle)” value [1] was 1.14% and the Indel efficiency [2] was 26%. For the same substance, the “% of CUG foci free nuclei (DNA-PKi)” value [3] was 57.35% and the “% of CUG foci free nuclei (Vehicle)” value [3] was 24.67%.
With “CGTGGATGGGCAAACTGCAGGC (guide RNA; chemistry not fully specified) [SluD12]” the “% of CAG foci positive nuclei (DNA-PKi)” value [1] was 1.21%, the “% of CAG foci positive nuclei (Vehicle)” value [1] was 4.65% and the Indel efficiency [2] was 44%. The “% of CUG foci free nuclei (DNA-PKi)” value [3] was 23.77% and the “% of CUG foci free nuclei (Vehicle)” value [3] was 17.76%.
In the case of “GCTTTTGCCAAACCCGCTTTTT (guide RNA; chemistry not fully specified) [SluD40]”, the “% of CAG foci positive nuclei (DNA-PKi)” value [1] is reported as 1.46%, the “% of CAG foci positive nuclei (Vehicle)” value [1] is reported as 1.68% and the Indel efficiency [2] is reported as 5%. For the same substance, the “% of CUG foci free nuclei (DNA-PKi)” value [3] was 23.44% and the “% of CUG foci free nuclei (Vehicle)” value [3] was 8.9%.
In the case of “TCAGCCTGGCCGAAAGAAAGAA (guide RNA; chemistry not fully specified) [SluD04]”, the “% of CAG foci positive nuclei (DNA-PKi)” value [1] is reported as 1.94%, the “% of CAG foci positive nuclei (Vehicle)” value [1] is reported as 1.17% and the Indel efficiency [2] is reported as 1%. The “% of CUG foci free nuclei (DNA-PKi)” value [3] was 19.38% and the “% of CUG foci free nuclei (Vehicle)” value [3] was 13.29%.
With “CCCCCTAGCggccggggaggga (guide RNA; as printed in the source, key not given here) [SluU44]” the “% of CAG foci positive nuclei (DNA-PKi)” value [1] was 1.77%, the “% of CAG foci positive nuclei (Vehicle)” value [1] was 0.7% and the Indel efficiency [2] was 16%. The “% of CUG foci free nuclei (DNA-PKi)” value [3] was 47% and the “% of CUG foci free nuclei (Vehicle)” value [3] was 12.6%.
With “cgcggccggcgaacggggcTCG (guide RNA; as printed in the source, key not given here) [SluU59]” the “% of CAG foci positive nuclei (DNA-PKi)” value [1] was 1.4%, the “% of CAG foci positive nuclei (Vehicle)” value [1] was 1.35% and the Indel efficiency [2] was 92%. For the same substance, the “indel efficiency (Sanger sequencing and ICE analysis)” value [2] was “high editing IN4DEL efficiency”, the “% of CUG foci free nuclei (DNA-PKi)” value [3] was 72.56% and the “% of CUG foci free nuclei (Vehicle)” value [3] was 23.05%.
In the case of “AGGACCCTTCGAgccccgttcg (as printed in the source, key not given here) [SluU62]”, the “% of CAG foci positive nuclei (DNA-PKi)” value [1] is reported as 1.67%, the “% of CAG foci positive nuclei (Vehicle)” value [1] is reported as 1% and the Indel efficiency [2] is reported as 87%. The “indel efficiency (Sanger sequencing and ICE analysis)” value [2] was “high editing IN4DEL efficiency”, the “% of CUG foci free nuclei (DNA-PKi)” value [3] was 59.07% and the “% of CUG foci free nuclei (Vehicle)” value [3] was 17.18%.
